Assay results taken from paper PMC5623904, “Structural investigation of nucleophosmin interaction with the tumor suppressor Fbw7γ” (Oncogenesis, 2017).
Where two headings read alike, the source gives them in different places. Peptide text beside a SMILES is read from it. * marks the point of attachment. Dansyl = CN(C)c1cccc2c(S(=O)(=O)*)cccc12

How the values were obtained:
Format in all cases: binding
[1] = target: T1, Nter-NPM1 (residues 16-123) (Homo sapiens, UniProt P06748); test: Equilibrium fluorescence titration of dansylated peptide with Nter-NPM1; details: for Nter-NPM1 KD: wild-type Nter-NPM1, N-terminally dansylated peptide 5 μM, protein 0 to 200/400 μM, sodium phosphate 20 mM pH 7.2, 25 °C, fluorescence ex 330 nm, triplicate, ±s.d., Ni = no interaction
T1 construct: inferred from pET28a NdeI/BamHI cloning and HisTrap purification) (N); made in house; host or cells: Escherichia coli BL21(DE3)
T1 sequence (P06748 16-123): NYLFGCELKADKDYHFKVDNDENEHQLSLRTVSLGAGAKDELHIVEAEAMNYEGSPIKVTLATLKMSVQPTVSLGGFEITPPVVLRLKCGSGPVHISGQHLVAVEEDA
Experimental: (§1) All experiments were performed at 25 °C in sodium phosphate buffer 20 mM pH 7.2, or in sodium phosphate buffer 20 mM plus 100 mM NaCl pH 7.2 (which sets ionic strength to 150 mM), using a FluoroMax-4 spectrofluorometer (Jobin Yvon, Edison, NJ, USA), equipped with a water bath apparatus. Fbw7γ and CENP-W peptides, functionalized with a dansyl (5-dimetilamminonaftalen-1-sulphonyl) group at their N terminus, were purchased from JPT (Germany). Tat peptide was synthesized employing the solid phase method following standard Fmoc strategies and labeled with dansyl fluorophore at its N terminus. Crude product was purified by RP-HPLC applying a linear gradient of 0.1% TFA CH3CN in 0.1% TFA water from 5% to 65% over 12 min using a semi-preparative 2.2 × 5 cm C18 column at a flow rate of 20 ml/min. Purity and identity were confirmed by LC–MS analysis.
(§2) Titration experiments were conducted with an excitation wavelength of 330 nm while the fluorescence emission spectra were collected in the range between 350 and 650 nm. Titrations were performed at constant peptide concentration (5 μM) and varying protein concentrations (from 0 to 200/400 μM). Titrations were performed in triplicate and data, analyzed with the Graphpad Prism software (https://www.graphpad.com/scientific-software/prism/), were reported as dissociation constant±s.d.
(§3) Equilibrium binding curves were fitted to the standard quadratic equation: […]
(§4) where F is the observed fluorescence signal, n and [A]0 are the total concentration of non-varied and varied species, respectively, and KD is the equilibrium dissociation constant. B and C are constants taking into account the total fluorescence change and fluorescence at [A]0=0, respectively, and k is a term describing the slope of the curve at high protein concentration. Whenever possible, under pseudo first-order conditions, the equation 1 was simplified to: […]

Nter-NPM1 D36A = target: T2, Nter-NPM1 D36A (Homo sapiens, UniProt P06748, D36A); test: Equilibrium fluorescence titration, Nter-NPM1 D36A mutant; details: dansylated peptide 5 μM; sodium phosphate 20 mM pH 7.2, 25 °C; triplicate, ±s.d.
T2 construct: inferred from pET28a NdeI/BamHI cloning and HisTrap purification) (N); made in house; host or cells: Escherichia coli BL21(DE3)
T2 sequence (P06748 16-123 D36A): as the sequence (P06748 16-123) above, with D21A counted along it
Experimental: (§5) Nter-NPM1 mutants were obtained by site-directed mutagenesis using the Quickchange II Lightning Site-Directed Mutagenesis kit (Stratagene, La Jolla, CA, USA), following manufacturer’s instructions. Oligonucleotides used for PCR were obtained from Primm Biotech (Milan, Italy). Forward oligonucleotides used are reported in Supplementary Table 2.
(§6) All experiments were performed at 25 °C in sodium phosphate buffer 20 mM pH 7.2, or in sodium phosphate buffer 20 mM plus 100 mM NaCl pH 7.2 (which sets ionic strength to 150 mM), using a FluoroMax-4 spectrofluorometer (Jobin Yvon, Edison, NJ, USA), equipped with a water bath apparatus. […]
as §2, with “Titrations were performed at constant peptide concentration (5 μM) and varying protein concentrations (from 0 to 200/400 μM).” left out, “constant±s.d. […]” for “constant±s.d.”
as §4, with “concentration.” for “concentration. Whenever possible, under pseudo first-order conditions, the equation 1 was simplified to:”

Nter-NPM1 E37A = target: T3, Nter-NPM1 E37A (Homo sapiens, UniProt P06748, E37A); test: Equilibrium fluorescence titration, Nter-NPM1 E37A mutant; details: dansylated peptide 5 μM; sodium phosphate 20 mM pH 7.2, 25 °C; triplicate, ±s.d.
T3 construct: inferred from pET28a NdeI/BamHI cloning and HisTrap purification) (N); made in house; host or cells: Escherichia coli BL21(DE3)
T3 sequence (P06748 16-123 E37A): as the sequence (P06748 16-123) above, with E22A counted along it
Experimental: as §5, §6
as §2, with “Titrations were performed at constant peptide concentration (5 μM) and varying protein concentrations (from 0 to 200/400 μM).” left out, “constant±s.d. […]” for “constant±s.d.”
as §4, with “concentration.” for “concentration. Whenever possible, under pseudo first-order conditions, the equation 1 was simplified to:”

Nter-NPM1 E39A = target: T4, Nter-NPM1 E39A (Homo sapiens, UniProt P06748, E39A); test: Equilibrium fluorescence titration, Nter-NPM1 E39A mutant; details: dansylated peptide 5 μM; sodium phosphate 20 mM pH 7.2, 25 °C; triplicate, ±s.d.
T4 construct: inferred from pET28a NdeI/BamHI cloning and HisTrap purification) (N); made in house; host or cells: Escherichia coli BL21(DE3)
T4 sequence (P06748 16-123 E39A): as the sequence (P06748 16-123) above, with E24A counted along it
Experimental: as §5, §6
as §2, with “Titrations were performed at constant peptide concentration (5 μM) and varying protein concentrations (from 0 to 200/400 μM).” left out, “constant±s.d. […]” for “constant±s.d.”
as §4, with “concentration.” for “concentration. Whenever possible, under pseudo first-order conditions, the equation 1 was simplified to:”

Nter-NPM1 E93A = target: T5, Nter-NPM1 E93A (Homo sapiens, UniProt P06748, E93A); test: Equilibrium fluorescence titration, Nter-NPM1 E93A mutant; details: dansylated peptide 5 μM; sodium phosphate 20 mM pH 7.2, 25 °C; triplicate, ±s.d.
T5 construct: inferred from pET28a NdeI/BamHI cloning and HisTrap purification) (N); made in house; host or cells: Escherichia coli BL21(DE3)
T5 sequence (P06748 16-123 E93A): as the sequence (P06748 16-123) above, with E78A counted along it
Experimental: as §5, §6
as §2, with “Titrations were performed at constant peptide concentration (5 μM) and varying protein concentrations (from 0 to 200/400 μM).” left out, “constant±s.d. […]” for “constant±s.d.”
as §4, with “concentration.” for “concentration. Whenever possible, under pseudo first-order conditions, the equation 1 was simplified to:”

Nter-NPM1 E121A = target: T6, Nter-NPM1 E121A (Homo sapiens, UniProt P06748, E121A); test: Equilibrium fluorescence titration, Nter-NPM1 E121A mutant; details: dansylated peptide 5 μM; sodium phosphate 20 mM pH 7.2, 25 °C; triplicate, ±s.d.
T6 construct: inferred from pET28a NdeI/BamHI cloning and HisTrap purification) (N); made in house; host or cells: Escherichia coli BL21(DE3)
T6 sequence (P06748 16-123 E121A): as the sequence (P06748 16-123) above, with E106A counted along it
Experimental: as §5, §6
as §2, with “Titrations were performed at constant peptide concentration (5 μM) and varying protein concentrations (from 0 to 200/400 μM).” left out, “constant±s.d. […]” for “constant±s.d.”
as §4, with “concentration.” for “concentration. Whenever possible, under pseudo first-order conditions, the equation 1 was simplified to:”

Nter-NPM1 D36A-E39A = target: T7, Nter-NPM1 D36A-E39A (Homo sapiens, UniProt P06748, D36A/E39A); test: Equilibrium fluorescence titration, Nter-NPM1 D36A-E39A mutant; details: dansylated peptide 5 μM; sodium phosphate 20 mM pH 7.2, 25 °C; triplicate, ±s.d.
T7 construct: inferred from pET28a NdeI/BamHI cloning and HisTrap purification) (N); made in house; host or cells: Escherichia coli BL21(DE3)
T7 sequence (P06748 16-123 D36A/E39A): as the sequence (P06748 16-123) above, with D21A, E24A counted along it
Experimental: as §5, §6
as §2, with “Titrations were performed at constant peptide concentration (5 μM) and varying protein concentrations (from 0 to 200/400 μM).” left out, “constant±s.d. […]” for “constant±s.d.”
as §4, with “concentration.” for “concentration. Whenever possible, under pseudo first-order conditions, the equation 1 was simplified to:”

Nter-NPM1 D36A-E93A = target: T8, Nter-NPM1 D36A-E93A (Homo sapiens, UniProt P06748, D36A/E93A); test: Equilibrium fluorescence titration, Nter-NPM1 D36A-E93A mutant; details: dansylated peptide 5 μM; sodium phosphate 20 mM pH 7.2, 25 °C; triplicate, ±s.d.
T8 construct: inferred from pET28a NdeI/BamHI cloning and HisTrap purification) (N); made in house; host or cells: Escherichia coli BL21(DE3)
T8 sequence (P06748 16-123 D36A/E93A): as the sequence (P06748 16-123) above, with D21A, E78A counted along it
Experimental: as §5, §6
as §2, with “Titrations were performed at constant peptide concentration (5 μM) and varying protein concentrations (from 0 to 200/400 μM).” left out, “constant±s.d. […]” for “constant±s.d.”
as §4, with “concentration.” for “concentration. Whenever possible, under pseudo first-order conditions, the equation 1 was simplified to:”

Nter-NPM1 E39A-E93A = target: T9, Nter-NPM1 E39A-E93A (Homo sapiens, UniProt P06748, E39A/E93A); test: Equilibrium fluorescence titration, Nter-NPM1 E39A-E93A mutant; details: dansylated peptide 5 μM; sodium phosphate 20 mM pH 7.2, 25 °C; triplicate, ±s.d.
T9 construct: inferred from pET28a NdeI/BamHI cloning and HisTrap purification) (N); made in house; host or cells: Escherichia coli BL21(DE3)
T9 sequence (P06748 16-123 E39A/E93A): as the sequence (P06748 16-123) above, with E24A, E78A counted along it
Experimental: as §5, §6
as §2, with “Titrations were performed at constant peptide concentration (5 μM) and varying protein concentrations (from 0 to 200/400 μM).” left out, “constant±s.d. […]” for “constant±s.d.”
as §4, with “concentration.” for “concentration. Whenever possible, under pseudo first-order conditions, the equation 1 was simplified to:”

Nter-NPM1 D36A-E39A-E93A = target: T10, Nter-NPM1 D36A-E39A-E93A (Homo sapiens, UniProt P06748, D36A/E39A/E93A); test: Equilibrium fluorescence titration, Nter-NPM1 triple mutant; details: dansylated peptide 5 μM
T10 construct: inferred from pET28a NdeI/BamHI cloning and HisTrap purification) (N); made in house; host or cells: Escherichia coli BL21(DE3)
T10 sequence (P06748 16-123 D36A/E39A/E93A): as the sequence (P06748 16-123) above, with D21A, E24A, E78A counted along it
Experimental: as §5, §1, §2, §3, §4

[2] = target: T11, Nter-NPM1 D36A-E37A-E39A-E93A (Homo sapiens, UniProt P06748, D36A/E37A/E39A/E93A); test: Equilibrium fluorescence titration, Nter-NPM1 quadruple mutant (E37A); details: dansylated peptide 5 μM
T11 construct: inferred from pET28a NdeI/BamHI cloning and HisTrap purification) (N); made in house; host or cells: Escherichia coli BL21(DE3)
T11 sequence (P06748 16-123 D36A/E37A/E39A/E93A): as the sequence (P06748 16-123) above, with D21A, E22A, E24A, E78A counted along it
Experimental: as §5, §1, §2, §3, §4

[3] = target: T12, Nter-NPM1 D36A-E39A-E93A-E121A (Homo sapiens, UniProt P06748, D36A/E121A/E39A/E93A); test: Equilibrium fluorescence titration, Nter-NPM1 quadruple mutant (E121A); details: dansylated peptide 5 μM; sodium phosphate 20 mM pH 7.2, 25 °C; triplicate, ±s.d.
T12 construct: inferred from pET28a NdeI/BamHI cloning and HisTrap purification) (N); made in house; host or cells: Escherichia coli BL21(DE3)
T12 sequence (P06748 16-123 D36A/E39A/E93A/E121A): as the sequence (P06748 16-123) above, with D21A, E24A, E78A, E106A counted along it
Experimental: as §5, §1
as §2, with “constant±s.d. […]” for “constant±s.d.”
as §4, with “concentration.” for “concentration. Whenever possible, under pseudo first-order conditions, the equation 1 was simplified to:”

[4] = target: T13, Nter-NPM1 D36A-E37A-E39A-E93A-E121A (Homo sapiens, UniProt P06748, D36A/E121A/E37A/E39A/E93A); test: Equilibrium fluorescence titration, Nter-NPM1 quintuple mutant; details: dansylated peptide 5 μM
T13 construct: inferred from pET28a NdeI/BamHI cloning and HisTrap purification) (N); made in house; host or cells: Escherichia coli BL21(DE3)
T13 sequence (P06748 16-123 D36A/E37A/E39A/E93A/E121A): as the sequence (P06748 16-123) above, with D21A, E22A, E24A, E78A, E106A counted along it
Experimental: as §5, §1, §2, §3, §4

Row | Molecule | Kd ([1]; SD, read-out: Nter-NPM1 KD) [µM] | Kd ([1]; wild type, sodium phosphate 20 mM plus 100 mM NaCl pH 7.2 (ionic strength 150 mM), 25 °C, dansylated peptide 5 μM, read-out: KD 100mM NaCl, Nter-NPM1) [µM] | Kd (Nter-NPM1 D36A) [µM] | Kd (Nter-NPM1 E37A) [µM] | Kd (Nter-NPM1 E39A) [µM] | Kd (Nter-NPM1 E93A) [µM] | Kd (Nter-NPM1 E121A) [µM] | Kd (Nter-NPM1 D36A-E39A) [µM] | Kd (Nter-NPM1 D36A-E93A) [µM] | Kd (Nter-NPM1 E39A-E93A) [µM] | Kd (Nter-NPM1 D36A-E39A-E93A; sodium phosphate 20 mM pH 7.2, 25 °C, triplicate, ±s.d., read-out: KD, D36A-E39A-E93A) [µM] | Kd (Nter-NPM1 D36A-E39A-E93A; sodium phosphate 20 mM plus 100 mM NaCl pH 7.2 (ionic strength 150 mM), 25 °C, read-out: KD 100mM NaCl, D36A-E39A-E93A) [µM] | Kd ([2]; sodium phosphate 20 mM pH 7.2, 25 °C, triplicate, ±s.d., read-out: KD, D36A-E37A-E39A-E93A) [µM] | Kd ([2]; sodium phosphate 20 mM plus 100 mM NaCl pH 7.2 (ionic strength 150 mM), 25 °C, read-out: KD 100mM NaCl, D36A-E37A-E39A-E93A) [µM] | Kd [3] [µM] | Kd ([4]; sodium phosphate 20 mM pH 7.2, 25 °C, triplicate, ±s.d.) [µM] | KD 100mM NaCl, D36A-E37A-E39A-E93A-E121A ([4]; sodium phosphate 20 mM plus 100 mM NaCl pH 7.2 (ionic strength 150 mM), 25 °C) | Nter-NPM1 KD [1] | Nter-NPM1 KD ([1]; listed as unrelated long)
1 | CSCC[C@H](NC(=O)[C@H](CCCNC(=N)N)NC(=O)[C@H](CCCNC(=N)N)NC(=O)[C@H](CCCNC(=N)N)NC(=O)[C@H](CS)NC(=O)[C@H](Cc1ccccc1)NC(=O)[C@@H]1CCCN1C(=O)[C@H](CC(C)C)NS(=O)(=O)c1cccc2c(N(C)C)cccc12)C(=O)N[C@@H](CCCCN)C(=O)N[C@@H](CCCNC(=N)N)C(=O)N[C@@H](CCCCN)C(=O)N[C@@H](CC(C)C)C(=O)N[C@@H](CC(=O)O)C(=O)N[C@@H](Cc1c[nH]cn1)C(=O)O [Fbw7γ*] (Dansyl-LPFCRRRMKRKLDH-OH) | 3.2 ± 0.6 | 20.6 ± 2.6 | 10.8 ± 2.6 | 12.5 ± 1.4 | 6.2 ± 1.5 | 5 ± 1.6 | 13.3 ± 3.8 | 13.5 ± 2 | 8.4 ± 1.5 | 7.6 ± 1.9 | 22 ± 3 | 66.8 ± 12.5 | 151 ± 20.5 | 158 ± 12.3 | 224 ± 35.9 | 654 ± 46.9 | No Interaction |  | 
2 | DDEAQTLAKFVLSQK [Unrelated long, reference compound] |  |  |  |  |  |  |  |  |  |  |  |  |  |  |  |  |  | Ni | No interaction
